Source: patent US8772480B2, “Inhibitors of PI3 kinase and/or mTOR” (priority 2009, dated 2014)

Legend:
[1] = molecular target: ProfilerPro Kinase Selectivity Assay Kit kinases (Homo sapiens, UniProt O00141); assay type: biochemical; conditions: SGK1; 1 μM compound concentration
Protocol: (§1) Compounds were profiled using a LabChip® EZ Reader II platform and a ProfilerPro Kinase Selectivity Assay Kit (Caliper Lifesciences Inc., Hopkinton, Mass.). Compounds were tested at a concentration of 1 M in duplicate, with mean data reported as percent of control (POC).

[2] = molecular target: ProfilerPro Kinase Selectivity Assay Kit kinases (Homo sapiens, UniProt O14757); assay type: biochemical; conditions: CHK1; 1 μM compound concentration
Protocol: as §1

[3] = molecular target: ProfilerPro Kinase Selectivity Assay Kit kinases (Homo sapiens, UniProt O14965); assay type: biochemical; conditions: AURORA A; 1 μM compound concentration
Protocol: as §1

[4] = molecular target: ProfilerPro Kinase Selectivity Assay Kit kinases (Homo sapiens, UniProt O75582); assay type: biochemical; conditions: MSK1; 1 μM compound concentration
Protocol: as §1

[5] = molecular target: ProfilerPro Kinase Selectivity Assay Kit kinases (Homo sapiens, UniProt O95819); assay type: biochemical; conditions: HGK; 1 μM compound concentration
Chain of ProfilerPro Kinase Selectivity Assay Kit kinases (Homo sapiens, UniProt O95819) (O95819 2-1239 limits assumed): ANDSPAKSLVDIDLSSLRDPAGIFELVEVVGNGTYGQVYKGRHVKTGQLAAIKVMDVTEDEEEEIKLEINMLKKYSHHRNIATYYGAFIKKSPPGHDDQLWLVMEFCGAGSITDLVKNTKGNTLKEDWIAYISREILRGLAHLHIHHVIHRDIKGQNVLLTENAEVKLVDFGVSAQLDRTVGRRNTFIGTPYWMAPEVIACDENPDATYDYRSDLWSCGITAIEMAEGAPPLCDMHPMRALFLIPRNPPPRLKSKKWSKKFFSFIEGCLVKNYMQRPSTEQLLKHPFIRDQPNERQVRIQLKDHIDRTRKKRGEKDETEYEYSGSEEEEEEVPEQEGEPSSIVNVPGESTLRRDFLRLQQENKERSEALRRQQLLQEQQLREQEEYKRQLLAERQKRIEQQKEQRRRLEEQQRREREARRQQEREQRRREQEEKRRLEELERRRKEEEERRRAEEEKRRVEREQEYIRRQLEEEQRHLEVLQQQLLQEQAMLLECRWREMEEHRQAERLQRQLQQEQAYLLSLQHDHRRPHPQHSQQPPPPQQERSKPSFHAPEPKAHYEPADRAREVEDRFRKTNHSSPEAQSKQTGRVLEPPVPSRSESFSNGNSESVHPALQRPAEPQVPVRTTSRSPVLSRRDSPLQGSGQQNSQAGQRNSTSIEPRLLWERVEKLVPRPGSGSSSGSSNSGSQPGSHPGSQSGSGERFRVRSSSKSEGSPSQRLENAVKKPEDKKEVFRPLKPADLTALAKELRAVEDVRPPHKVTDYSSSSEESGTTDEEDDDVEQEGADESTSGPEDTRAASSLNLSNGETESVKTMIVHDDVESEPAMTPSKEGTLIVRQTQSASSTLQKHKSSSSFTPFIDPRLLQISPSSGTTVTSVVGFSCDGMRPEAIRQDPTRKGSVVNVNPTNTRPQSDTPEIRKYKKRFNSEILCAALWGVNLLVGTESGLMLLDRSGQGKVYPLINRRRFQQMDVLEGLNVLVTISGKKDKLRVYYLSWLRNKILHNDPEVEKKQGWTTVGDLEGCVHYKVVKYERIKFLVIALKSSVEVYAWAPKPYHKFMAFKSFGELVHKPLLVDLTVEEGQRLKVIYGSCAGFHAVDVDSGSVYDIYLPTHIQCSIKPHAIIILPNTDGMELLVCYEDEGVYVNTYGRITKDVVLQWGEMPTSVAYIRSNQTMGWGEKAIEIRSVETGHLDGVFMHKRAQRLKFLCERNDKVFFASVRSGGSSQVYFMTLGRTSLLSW
Protocol: as §1

[6] = molecular target: ProfilerPro Kinase Selectivity Assay Kit kinases (Homo sapiens, UniProt O96017); assay type: biochemical; conditions: CHK2; 1 μM compound concentration
Protocol: as §1

[7] = molecular target: ProfilerPro Kinase Selectivity Assay Kit kinases (Homo sapiens, UniProt P00519); assay type: biochemical; conditions: ABL; 1 μM compound concentration
Protocol: as §1

[8] = molecular target: ProfilerPro Kinase Selectivity Assay Kit kinases (Homo sapiens, UniProt P04049); assay type: biochemical; conditions: cRAF; 1 μM compound concentration
Protocol: as §1

[9] = molecular target: ProfilerPro Kinase Selectivity Assay Kit kinases (Homo sapiens, UniProt P06239); assay type: biochemical; conditions: LCK; 1 μM compound concentration
Chain of ProfilerPro Kinase Selectivity Assay Kit kinases (Homo sapiens, UniProt P06239) (P06239 2-509 limits assumed): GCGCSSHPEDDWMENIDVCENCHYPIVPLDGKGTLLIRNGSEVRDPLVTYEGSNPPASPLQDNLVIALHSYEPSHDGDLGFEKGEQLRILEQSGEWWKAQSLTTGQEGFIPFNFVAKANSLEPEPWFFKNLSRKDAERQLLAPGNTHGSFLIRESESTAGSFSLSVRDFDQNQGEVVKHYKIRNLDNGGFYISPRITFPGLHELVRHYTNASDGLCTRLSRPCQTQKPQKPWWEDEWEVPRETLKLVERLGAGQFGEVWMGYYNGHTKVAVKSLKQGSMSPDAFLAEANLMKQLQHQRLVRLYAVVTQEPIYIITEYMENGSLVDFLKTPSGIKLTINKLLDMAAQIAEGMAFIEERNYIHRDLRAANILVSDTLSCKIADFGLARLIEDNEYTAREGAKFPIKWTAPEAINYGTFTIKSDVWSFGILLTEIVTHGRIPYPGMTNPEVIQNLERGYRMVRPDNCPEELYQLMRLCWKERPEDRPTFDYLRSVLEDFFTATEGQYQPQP
Protocol: as §1

[10] = molecular target: ProfilerPro Kinase Selectivity Assay Kit kinases (Homo sapiens, UniProt P06241); assay type: biochemical; conditions: FYN; 1 μM compound concentration
Protocol: as §1

[11] = molecular target: ProfilerPro Kinase Selectivity Assay Kit kinases (Homo sapiens, UniProt P07948); assay type: biochemical; conditions: LYN; 1 μM compound concentration
Chain of ProfilerPro Kinase Selectivity Assay Kit kinases (Homo sapiens, UniProt P07948) (P07948 2-512 limits assumed): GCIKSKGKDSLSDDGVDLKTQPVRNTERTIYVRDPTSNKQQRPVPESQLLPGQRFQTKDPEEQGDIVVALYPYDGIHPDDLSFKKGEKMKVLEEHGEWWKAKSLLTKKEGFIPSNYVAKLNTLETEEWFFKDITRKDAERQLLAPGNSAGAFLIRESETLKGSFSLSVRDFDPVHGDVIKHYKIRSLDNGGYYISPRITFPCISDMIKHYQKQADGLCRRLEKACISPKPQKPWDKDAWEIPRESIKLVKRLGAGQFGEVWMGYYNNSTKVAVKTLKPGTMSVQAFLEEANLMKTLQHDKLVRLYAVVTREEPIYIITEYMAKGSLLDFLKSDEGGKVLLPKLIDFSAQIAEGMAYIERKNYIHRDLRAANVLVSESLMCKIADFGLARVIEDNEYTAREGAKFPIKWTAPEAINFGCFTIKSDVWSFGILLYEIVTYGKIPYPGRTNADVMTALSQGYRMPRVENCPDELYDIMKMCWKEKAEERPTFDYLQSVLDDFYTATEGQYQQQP
Protocol: as §1

[12] = molecular target: ProfilerPro Kinase Selectivity Assay Kit kinases (Homo sapiens, UniProt P08069); assay type: biochemical; conditions: IGF1R; 1 μM compound concentration
Protocol: as §1

[13] = molecular target: ProfilerPro Kinase Selectivity Assay Kit kinases (Homo sapiens, UniProt P11362); assay type: biochemical; conditions: FGFR1; 1 μM compound concentration
Protocol: as §1

[14] = molecular target: ProfilerPro Kinase Selectivity Assay Kit kinases (Homo sapiens, UniProt P12931); assay type: biochemical; conditions: SRC; 1 μM compound concentration
Protocol: as §1

[15] = molecular target: ProfilerPro Kinase Selectivity Assay Kit kinases (Homo sapiens, UniProt P17612); assay type: biochemical; conditions: PKA alpha; 1 μM compound concentration
Protocol: as §1

[16] = molecular target: ProfilerPro Kinase Selectivity Assay Kit kinases (Homo sapiens, UniProt P23443); assay type: biochemical; conditions: p70S6K; 1 μM compound concentration
Protocol: as §1

[17] = molecular target: ProfilerPro Kinase Selectivity Assay Kit kinases (Homo sapiens, UniProt P24941); assay type: biochemical; conditions: CDK2; 1 μM compound concentration
Protocol: as §1

[18] = molecular target: ProfilerPro Kinase Selectivity Assay Kit kinases (Homo sapiens, UniProt P27361); assay type: biochemical; conditions: ERK1; 1 μM compound concentration
Chain of ProfilerPro Kinase Selectivity Assay Kit kinases (Homo sapiens, UniProt P27361) (P27361 2-379 limits assumed): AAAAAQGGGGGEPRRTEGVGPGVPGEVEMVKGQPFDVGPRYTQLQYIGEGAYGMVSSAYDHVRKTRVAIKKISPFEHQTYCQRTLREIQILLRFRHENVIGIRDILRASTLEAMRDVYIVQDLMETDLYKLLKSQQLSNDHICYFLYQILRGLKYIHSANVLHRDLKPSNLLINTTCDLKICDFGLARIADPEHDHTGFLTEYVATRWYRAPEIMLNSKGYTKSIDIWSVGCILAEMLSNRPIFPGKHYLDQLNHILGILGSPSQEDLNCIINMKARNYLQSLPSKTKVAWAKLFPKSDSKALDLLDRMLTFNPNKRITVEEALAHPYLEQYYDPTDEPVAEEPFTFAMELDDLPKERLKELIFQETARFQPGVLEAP
Protocol: as §1

[19] = molecular target: ProfilerPro Kinase Selectivity Assay Kit kinases (Homo sapiens, UniProt P28482); assay type: biochemical; conditions: ERK2; 1 μM compound concentration
Protocol: as §1

[20] = molecular target: ProfilerPro Kinase Selectivity Assay Kit kinases (Homo sapiens, UniProt P31749); assay type: biochemical; conditions: AKT1; 1 μM compound concentration
Protocol: as §1

[21] = molecular target: ProfilerPro Kinase Selectivity Assay Kit kinases (Homo sapiens, UniProt P35968); assay type: biochemical; conditions: KDR; 1 μM compound concentration
Protocol: as §1

[22] = molecular target: ProfilerPro Kinase Selectivity Assay Kit kinases (Homo sapiens, UniProt P36888); assay type: biochemical; conditions: FLT3; 1 μM compound concentration
Chain of ProfilerPro Kinase Selectivity Assay Kit kinases (Homo sapiens, UniProt P36888) (P36888 27-993 limits assumed): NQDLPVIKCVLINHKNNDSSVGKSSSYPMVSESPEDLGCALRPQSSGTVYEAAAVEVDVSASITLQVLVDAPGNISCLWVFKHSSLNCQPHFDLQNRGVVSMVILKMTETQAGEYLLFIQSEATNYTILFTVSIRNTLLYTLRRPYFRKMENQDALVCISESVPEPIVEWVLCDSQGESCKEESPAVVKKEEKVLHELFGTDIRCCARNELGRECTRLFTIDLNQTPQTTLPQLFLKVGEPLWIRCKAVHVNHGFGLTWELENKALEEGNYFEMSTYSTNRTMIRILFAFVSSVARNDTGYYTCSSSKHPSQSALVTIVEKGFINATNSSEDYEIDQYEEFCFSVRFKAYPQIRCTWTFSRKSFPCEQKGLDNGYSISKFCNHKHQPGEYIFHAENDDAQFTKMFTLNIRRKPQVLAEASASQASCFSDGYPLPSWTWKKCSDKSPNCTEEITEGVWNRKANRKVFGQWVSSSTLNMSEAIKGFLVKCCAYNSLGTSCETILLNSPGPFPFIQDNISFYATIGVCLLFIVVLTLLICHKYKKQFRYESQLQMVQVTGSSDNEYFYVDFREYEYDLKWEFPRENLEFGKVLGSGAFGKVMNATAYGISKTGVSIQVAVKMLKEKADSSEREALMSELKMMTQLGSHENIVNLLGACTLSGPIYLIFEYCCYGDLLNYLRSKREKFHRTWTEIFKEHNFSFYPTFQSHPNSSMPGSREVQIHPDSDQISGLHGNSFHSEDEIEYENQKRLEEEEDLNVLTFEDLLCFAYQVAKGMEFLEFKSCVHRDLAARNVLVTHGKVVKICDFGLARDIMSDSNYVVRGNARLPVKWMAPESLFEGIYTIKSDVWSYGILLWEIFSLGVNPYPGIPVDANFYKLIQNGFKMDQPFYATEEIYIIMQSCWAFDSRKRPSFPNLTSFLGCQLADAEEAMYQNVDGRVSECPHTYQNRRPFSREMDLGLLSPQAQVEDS
Protocol: as §1

[23] = molecular target: ProfilerPro Kinase Selectivity Assay Kit kinases (Homo sapiens, UniProt P43405); assay type: biochemical; conditions: SYK; 1 μM compound concentration
Protocol: as §1

[24] = molecular target: ProfilerPro Kinase Selectivity Assay Kit kinases (Homo sapiens, UniProt Q05513); assay type: biochemical; conditions: PKC zeta; 1 μM compound concentration
Protocol: as §1

[25] = molecular target: ProfilerPro Kinase Selectivity Assay Kit kinases (Homo sapiens, UniProt Q06187); assay type: biochemical; conditions: BTK; 1 μM compound concentration
Chain of ProfilerPro Kinase Selectivity Assay Kit kinases (Homo sapiens, UniProt Q06187) (Q06187 2-659 limits assumed): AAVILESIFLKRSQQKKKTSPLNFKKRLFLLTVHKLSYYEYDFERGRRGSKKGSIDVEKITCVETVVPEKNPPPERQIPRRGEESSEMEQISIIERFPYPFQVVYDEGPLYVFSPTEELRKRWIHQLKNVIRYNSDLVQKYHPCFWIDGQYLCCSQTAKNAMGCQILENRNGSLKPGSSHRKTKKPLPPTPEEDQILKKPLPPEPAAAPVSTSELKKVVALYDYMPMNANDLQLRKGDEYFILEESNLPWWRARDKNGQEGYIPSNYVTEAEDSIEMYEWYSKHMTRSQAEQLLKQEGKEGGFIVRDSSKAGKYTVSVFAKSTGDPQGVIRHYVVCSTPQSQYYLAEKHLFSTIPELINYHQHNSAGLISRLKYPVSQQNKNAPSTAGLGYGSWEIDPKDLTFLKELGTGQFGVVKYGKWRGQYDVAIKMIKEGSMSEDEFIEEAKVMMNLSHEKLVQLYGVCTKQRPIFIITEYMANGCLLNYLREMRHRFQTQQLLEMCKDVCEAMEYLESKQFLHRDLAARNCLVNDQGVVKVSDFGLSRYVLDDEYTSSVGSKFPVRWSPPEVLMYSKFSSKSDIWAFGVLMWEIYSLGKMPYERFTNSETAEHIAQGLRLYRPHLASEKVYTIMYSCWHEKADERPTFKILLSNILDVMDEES
Protocol: as §1

[26] = molecular target: ProfilerPro Kinase Selectivity Assay Kit kinases (Homo sapiens, UniProt Q13177); assay type: biochemical; conditions: PAK2; 1 μM compound concentration
Protocol: as §1

[27] = molecular target: ProfilerPro Kinase Selectivity Assay Kit kinases (Homo sapiens, UniProt Q13976); assay type: biochemical; conditions: PKGa2; 1 μM compound concentration
Protocol: as §1

[28] = molecular target: ProfilerPro Kinase Selectivity Assay Kit kinases (Homo sapiens, UniProt Q9BZL6); assay type: biochemical; conditions: PKD2; 1 μM compound concentration
Protocol: as §1

[29] = molecular target: ProfilerPro Kinase Selectivity Assay Kit kinases (Homo sapiens, UniProt Q9P0L2); assay type: biochemical; conditions: MARK1; 1 μM compound concentration
Protocol: as §1

[30] = molecular target: ProfilerPro Kinase Selectivity Assay Kit kinases (Homo sapiens, UniProt Q9P1W9); assay type: biochemical; conditions: PIM2; 1 μM compound concentration
Protocol: as §1

[31] = molecular target: human mutant B-raf (HuBraf V600E) (Homo sapiens (Human), UniProt P15056, V600E); conditions: at 10 μM compound concentration; POC = 100 − percent inhibition
Chain of human mutant B-raf (HuBraf V600E) (P15056 whole entry V600E): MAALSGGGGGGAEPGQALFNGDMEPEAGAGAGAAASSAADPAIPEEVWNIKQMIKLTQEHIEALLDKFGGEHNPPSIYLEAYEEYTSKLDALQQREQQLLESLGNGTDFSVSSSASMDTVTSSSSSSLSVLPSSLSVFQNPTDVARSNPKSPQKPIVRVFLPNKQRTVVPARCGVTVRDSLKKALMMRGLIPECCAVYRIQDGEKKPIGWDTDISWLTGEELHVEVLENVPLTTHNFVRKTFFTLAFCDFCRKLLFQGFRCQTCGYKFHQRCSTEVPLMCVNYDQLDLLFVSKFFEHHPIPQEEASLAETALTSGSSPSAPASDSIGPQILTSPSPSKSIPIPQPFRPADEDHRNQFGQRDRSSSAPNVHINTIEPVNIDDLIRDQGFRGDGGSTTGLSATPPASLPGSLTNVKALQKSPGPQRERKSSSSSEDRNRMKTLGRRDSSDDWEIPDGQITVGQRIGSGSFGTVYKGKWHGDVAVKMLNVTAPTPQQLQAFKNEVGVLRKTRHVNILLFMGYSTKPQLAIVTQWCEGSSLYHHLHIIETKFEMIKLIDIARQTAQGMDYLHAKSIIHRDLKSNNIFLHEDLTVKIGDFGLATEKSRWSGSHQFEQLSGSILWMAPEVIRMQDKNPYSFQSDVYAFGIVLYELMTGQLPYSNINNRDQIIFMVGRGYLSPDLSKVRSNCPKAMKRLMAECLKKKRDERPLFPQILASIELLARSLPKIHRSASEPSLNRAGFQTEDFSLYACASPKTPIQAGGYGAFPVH

| SMILES | POC (Percent of control) SGK1 [1] [POC] | POC (Percent of control) CHK1 [2] [POC] | POC (Percent of control) AURORA A [3] [POC] | POC (Percent of control) MSK1 [4] [POC] | POC (Percent of control) HGK [5] [POC] | POC (Percent of control) CHK2 [6] [POC] | POC (Percent of control) ABL [7] [POC] | POC (Percent of control) cRAF [8] [POC] | POC (Percent of control) LCK [9] [POC] | POC (Percent of control) FYN [10] [POC] | POC (Percent of control) LYN [11] [POC] | POC (Percent of control) IGF1R [12] [POC] | POC (Percent of control) FGFR1 [13] [POC] | POC (Percent of control) SRC [14] [POC] | POC (Percent of control) PKA alpha [15] [POC] | POC (Percent of control) p70S6K [16] [POC] | POC (Percent of control) CDK2 [17] [POC] | POC (Percent of control) ERK1 [18] [POC] | POC (Percent of control) ERK2 [19] [POC] | POC (Percent of control) AKT1 [20] [POC] | further results |
| --- | --- | --- | --- | --- | --- | --- | --- | --- | --- | --- | --- | --- | --- | --- | --- | --- | --- | --- | --- | --- | --- |
| Cc1cnc(Nc2cccc3[nH]ccc23)c(-c2nc(C)nc(N)n2)c1 [Example 46, N-(3-(4-Amino-6-Methyl-1,3,5-Triazin-2-yl)-5-Methylpyridin-2-yl)-1H-Indol-4-Amine] | 89 | 98 | 31 | 103 | 104 | 101 | 97 | 91 | 96 | 101 | 96 | 78 | 98 | 96 | 102 | 90 | 97 | 92 | 116 | 93 | POC (Percent of control) KDR [21]: 90 POC; POC (Percent of control) FLT3 [22]: 99 POC; POC (Percent of control) SYK [23]: 104 POC; POC (Percent of control) PKC zeta [24]: 198 POC; POC (Percent of control) BTK [25]: 98 POC; POC (Percent of control) PAK2 [26]: 95 POC; POC (Percent of control) PKGa2 [27]: 95 POC; POC (Percent of control) PKD2 [28]: 106 POC; POC (Percent of control) MARK1 [29]: 102 POC; POC (Percent of control) PIM2 [30]: 99 POC; Mutant B-raf HTRF Assay POC Mean n = 2 [31]: 68% of Control (POC) |
| COc1ccc(Nc2ncc(CN3CCN(C(C)=O)CC3)cc2-c2nc(C)nc3[nH]cnc23)cn1 [Example 89, 1-(4-((6-(6-methoxypyridin-3-ylamino)-5-(2-methyl-9H-purin-6-yl)pyridin-3-yl)methyl)piperazin-1-yl)ethanone] | 92 | 99 | 108 | 91 | 95 | 97 | 107 | 99 | 101 | 99 | 96 | 98 | 97 | 101 | 99 | 89 | 96 | 100 | 106 | 102 | POC (Percent of control) KDR [21]: 92 POC; POC (Percent of control) FLT3 [22]: 95 POC; POC (Percent of control) SYK [23]: 80 POC; POC (Percent of control) PKC zeta [24]: 109 POC; POC (Percent of control) BTK [25]: 102 POC; POC (Percent of control) PAK2 [26]: 97 POC; POC (Percent of control) PKGa2 [27]: 87 POC; POC (Percent of control) PKD2 [28]: 100 POC; POC (Percent of control) MARK1 [29]: 92 POC; POC (Percent of control) PIM2 [30]: 93 POC; Mutant B-raf HTRF Assay POC Mean n = 2 [31]: 102% of Control (POC) |
